Test results: publication PMC12373499 (Nature Metabolism, 2025)
“And” between values parts separate entries of the source, which are not always exact repeats. Equal values may be shown once. Where a SMILES comes first, the peptide text is derived from it. [ ]: non-standard residue; d: D form. The star is where a group is joined. X1 = CN1C(=CC=CC=CC2=[N+](CCCCCC(=O)NCCN3C(=O)CC(*)C3=O)c3ccccc3C2(C)C)C(C)(C)c2ccccc21; Aib = CC(C)(N)C(=O)O

Key:
C57BL/N mice = experiment: Food intake study (FED3 devices); format: in vivo, mouse; conditions: 10 nmol kg^−1 s.c., dark phase and cumulative 24 h, n = 8 mice
Description: Male and female 12–14 week old C57BL/N mice were singly housed in a 12 h dark–light cycle (14:00–02:00 h) and habituated to FED3 feeding devices for 7 days before commencing the study. All mice were kept on a 12 h light–dark cycle at 20–24 °C and 45–65% relative humidity (typically 21 °C and 55%). On test days, mice were fasted for 3 h before onset of the dark phase by removal of the FED3 devices. […] The study was performed using a three-way crossover design. A 1-week washout period was observed between experimental days. FED3 devices were checked, serviced and food was topped up daily.

[1] = test system: Glp1r^WT/WT, Glp1r^WT/KO and Glp1r^KO/KO mice; experiment: Glucose tolerance testing (IPGTT); format: in vivo, mouse; set-up: Area under the curve for IPGTT: unit not given beside the values; conditions: for Area under the curve for IPGTT: individual mice
Description: Glucose was measured in blood from the tail vein at 0, 15, 30, 60, 90 and 120 min post glucose challenge. Mice were socially housed in specific-pathogen-free conditions under a 12 h light–dark cycle with ad libitum access to food and water, relative humidity 55 ± 10% and temperature 21 ± 2 °C.

Compound: CC[C@H](C)[C@H](NC(=O)[C@H](CC(C)C)NC(=O)[C@H](Cc1c[nH]c2ccccc12)NC(=O)[C@H](CCC(N)=O)NC(=O)[C@@H](NC(=O)[C@H](Cc1ccccc1)NC(=O)[C@H](C)NC(=O)[C@H](CCCCN)NC(=O)[C@H](CCC(N)=O)NC(=O)[C@H](C)NC(=O)[C@@H](NC(=O)[C@H](CCCCN)NC(=O)[C@H](CC(=O)O)NC(=O)[C@H](CC(C)C)NC(=O)C(C)(C)NC(=O)[C@@H](NC(=O)[C@H](CO)NC(=O)[C@H](Cc1ccc(O)cc1)NC(=O)[C@H](CC(=O)O)NC(=O)[C@H](CO)NC(=O)[C@@H](NC(=O)[C@H](Cc1ccccc1)NC(=O)[C@@H](NC(=O)CNC(=O)[C@H](CCC(=O)O)NC(=O)C(C)(C)NC(=O)[C@@H](N)Cc1ccc(O)cc1)[C@@H](C)O)[C@@H](C)O)[C@@H](C)CC)[C@@H](C)CC)C(C)C)C(=O)N[C@@H](C)C(=O)NCC(=O)NCC(=O)N1CCC[C@H]1C(=O)N[C@@H](CO)C(=O)N[C@@H](CO)C(=O)NCC(=O)N[C@@H](C)C(=O)N1CCC[C@H]1C(=O)N1CCC[C@H]1C(=O)N1CCC[C@H]1C(=O)N[C@@H](CSC1CC(=O)N(CCNC(=O)CCCCC[N+]2=C(C=CC=CC=C3N(C)c4ccccc4C3(C)C)C(C)(C)c3ccccc32)C1=O)C(N)=O (some centres unmarked) [daLUXendin660] (H-Y[Aib]EGTFTSDYSI[Aib]LDKIAQKAFVQWLIAGGPSSGAPPPC(X1)-NH2)
- effect on food intake (C57BL/N mice): reduced food intake
- effect on blood glucose in glucose tolerance test ([1]; 10 nmol kg^−1, Glp1r^WT/WT and Glp1r^WT/KO mice): substantial glucose-lowering effects
- Area under the curve for IPGTT ([1]; GLP1RKO/KO (KO) mice): 1726.5 and 1785 and 1967.25 and 1908.75 and 1827 and 1220.25 and 1424.25
- Area under the curve for IPGTT ([1]; GLP1RWT/WT and GLP1RWT/KO (WT) mice): 2001 and 1668.75 and 1041.75 and 969.75 and 1068
- Area under the curve for IPGTT, mean ([1]; KO mice, group mean (n = 6 TZP, n = 7 daLUX)): 1694
- Area under the curve for IPGTT, mean ([1]; WT mice, group mean (n = 6 TZP, n = 5 daLUX)): 1350
- Area under the curve for IPGTT, Mean Diff. WT Veh vs. WT treated ([1]; WT mice, one-way ANOVA, Benjamini, Krieger and Yekutieli): 966.4
- Area under the curve for IPGTT, Mean Diff. WT treated vs. KO treated ([1]; WT vs. KO mice, one-way ANOVA, Benjamini, Krieger and Yekutieli): -344.3
